Results as given in PubChem BioAssay AID1996.
Converted amounts (≈) assume the structure as drawn.

Settings: buffer; pH 7.4; 200.0 µM

First: Cc1ccc(NC(=S)Nc2cccc3cnccc23)cc1
Second: O=C(Nc1ccccc1)Nc1ccc2ccccc2c1
The solubility kinetic of the first is higher: 30 µg/mL (≈ 102 µM) for the first, less than 0.3 µg/mL for the second.

Going from `COc1ccc(/C=C/C(=O)OCC(=O)c2ccc[nH]2)cc1` to `COc1ccc(/C(N)=N/OC(=O)c2cccc([N+](=O)[O-])c2C)cc1`, the solubility kinetic falls from 5 µg/mL (≈ 17.5 µM) to 1.1 µg/mL (≈ 3.34 µM) (4.5-fold).

`O=Cc1c(N2CCC3(CC2)OCCO3)nc2ccccn2c1=O` and `O=C1C(Cl)=C(N2CCCC2)C(=O)N1c1ccccc1F` cannot be ordered by solubility kinetic: greater than 47.3 µg/mL for the first, greater than 44.2 µg/mL for the second.

`Cc1cccc(C(=O)OCC(=O)N2CCCCCC2)c1C` and `Cc1ccc(C)c(OCCCCN2CCCCC2)c1.O=C(O)C(=O)O` cannot be ordered by solubility kinetic: greater than 43.4 µg/mL for the first, 47.5 µg/mL for the second.

First: O=C(NC(=S)N1CCCC(O)C1)c1ccco1 (centres undefined)
Second: Cc1ccc(CN2CCCC(C(=O)c3ccc4c(c3)OCO4)C2)cc1C (centres undefined)
The solubility kinetic of the first is higher: greater than 38.1 µg/mL for the first, 25.4 µg/mL (≈ 72.3 µM) for the second.

Compared with `Cc1ccc(NC(=O)c2cccc(N3C(=O)C4C5C=CC(C5)C4C3=O)c2)cc1C` (centres undefined), `O=C1C2C3C=CC(CC3)C2C(=O)N1c1ccccc1F` (centres undefined) is 13-fold higher in solubility kinetic: 1.5 µg/mL (≈ 3.88 µM) for the first, 19.6 µg/mL (≈ 72.2 µM) for the second.

Compared with `COc1cccc(-c2nc(-c3cccs3)no2)c1`, `Clc1nc2ccccc2nc1-c1ccccc1` is higher in solubility kinetic: less than 0.3 µg/mL for the first, 0.6 µg/mL (≈ 2.49 µM) for the second.

Going from `CN1CC(C(=O)c2ccc(Cl)cc2)C(c2ccccc2)C1` (centres undefined) to `O=C(C1CC1)N1CCc2sccc2C1c1ccc(Cl)cc1` (centres undefined), the solubility kinetic falls from 40.1 µg/mL (≈ 134 µM) to less than 0.7 µg/mL.

`O=c1nc2n(c3cccc(Cl)c13)CCCCC2` and `COc1cc2ccccc2cc1C(=O)NC1CCCCC1` are within 1.5-fold of each other in solubility kinetic: 31 µg/mL (≈ 125 µM) for the first, 25.3 µg/mL (≈ 89.3 µM) for the second.

`O=C1N(c2ccccc2)C[C@@H]2C[C@@H](c3cccs3)N3CCC[C@@]123` and `O=C(Nc1nc2ccccc2n1CCN1CCOCC1)c1ccccc1` are within 1.5-fold of each other in solubility kinetic: 41.8 µg/mL (≈ 129 µM) for the first, 51.4 µg/mL (≈ 147 µM) for the second.

Going from `O=C(c1ccc(F)cc1Cl)N1CCN(CCc2ccccc2)CC1` to `O=C(/C=C/c1cccc([N+](=O)[O-])c1)N1CCN(c2ccccn2)CC1`, the solubility kinetic falls from greater than 52 µg/mL to 3.1 µg/mL (≈ 9.16 µM).

Compared with `O=C(Nc1cccc(F)c1)c1ccc2ncsc2c1`, `O=C(Nc1nccs1)c1cccc2ccccc12` is 21-fold lower in solubility kinetic: 39.8 µg/mL (≈ 146 µM) for the first, 1.9 µg/mL (≈ 7.47 µM) for the second.

Compared with `COC(=O)c1c(-c2ccc(F)cc2)csc1NC(=O)C1CCCO1` (centres undefined), `Cc1cnc(C(=O)OCC(=O)c2ccc(Cl)cc2)cn1` is higher in solubility kinetic: 5.2 µg/mL (≈ 14.9 µM) for the first, greater than 43.6 µg/mL for the second.

Going from `COc1ccc(C(=O)NCCNc2ccc([N+](=O)[O-])cc2)cc1OC` to `COc1ccc(OCC(=O)Nc2ccc3c(c2)n(C)c(=O)n3C)cc1`, the solubility kinetic rises from 1.7 µg/mL (≈ 4.92 µM) to 48.2 µg/mL (≈ 141 µM) (28-fold).

`O=C(CCS(=O)(=O)c1ccccc1)NCc1ccccc1` and `COc1ccc(S(=O)(=O)N[C@@H](CSCc2ccccc2)C(=O)O)cc1` cannot be ordered by solubility kinetic: greater than 45.5 µg/mL for the first, greater than 57.2 µg/mL for the second.

`CCCCNC(=O)C(=O)NCc1ccncc1` and `CCN(Cc1ccncc1)C(=O)CSc1ccc2ccccc2c1` are within 1.5-fold of each other in solubility kinetic: 32.8 µg/mL (≈ 139 µM) for the first, 32.6 µg/mL (≈ 96.9 µM) for the second.

First: C=CCNc1nc(Cl)nc(NC2CCCCC2)n1
Second: CC(C)/C(C=O)=C(/NC1CCCCC1)c1ccccc1
The solubility kinetic of the first is 7.7-fold higher: 6.9 µg/mL (≈ 25.8 µM) for the first, 0.9 µg/mL (≈ 3.32 µM) for the second.

First: O=C(COC(=O)Cc1ccccc1F)NC(=O)NC1CCCC1
Second: CS(=O)(=O)N(CC(=O)N1CCCC1)c1ccccc1F
The solubility kinetic of the first is lower: 42.5 µg/mL (≈ 132 µM) for the first, greater than 45.1 µg/mL for the second.

First: O=C(Nc1cc(S(=O)(=O)N2CCOCC2)ccc1Cl)c1ccncc1
Second: CC(=O)Nc1ccc(S(=O)(=O)Nc2ccc3c(c2)CCC3)cc1
The solubility kinetic of the first is higher: greater than 57.3 µg/mL for the first, 4.2 µg/mL (≈ 12.7 µM) for the second.

First: CCN(CC)S(=O)(=O)c1cccc(NC(=O)COC(=O)c2cncc(Br)c2)c1
Second: Cc1ccc(S(=O)(=O)NCC(=O)NNC(=O)c2ccccc2Cl)cc1C
The solubility kinetic of the first is lower: 40.3 µg/mL (≈ 85.7 µM) for the first, greater than 59.4 µg/mL for the second.

Compared with `COCC(C)N1C(=O)Cc2c1nc(N)c1c(N)nc(N3CCN(c4ccccc4F)CC3)c(C#N)c21` (centres undefined), `CCNC(=S)N1CCN(S(=O)(=O)/C=C/c2ccccc2)CC1` is 2.5-fold higher in solubility kinetic: 1.7 µg/mL (≈ 3.47 µM) for the first, 4.2 µg/mL (≈ 12.4 µM) for the second.

`COCCNC(=O)C(NC(=O)C1CCC(C)CC1)C(C)C` (centres undefined) and `CC1CCC(NC(=O)CNC(=O)c2cccs2)CC1` (centres undefined) cannot be ordered by solubility kinetic: greater than 44.8 µg/mL for the first, greater than 42.1 µg/mL for the second.

`CC(C)NC(=O)c1ccccc1NC(=O)C1CC(=O)N(C(C)C)C1` (centres undefined) and `COC(=O)c1ccccc1NS(=O)(=O)c1c(C)noc1C` cannot be ordered by solubility kinetic: greater than 49.7 µg/mL for the first, greater than 46.5 µg/mL for the second.

Compared with `Cc1ccc(NC(=O)c2ccc(C(=O)c3ccccc3)cc2)nc1`, `COC(=O)c1ccc(COc2ncnc3ccccc23)o1` is higher in solubility kinetic: 5.1 µg/mL (≈ 16.1 µM) for the first, greater than 42.6 µg/mL for the second.

`CC1(NS(=O)(=O)c2ccc(Cl)s2)CCS(=O)(=O)C1` (centres undefined) and `CN(C)S(=O)(=O)Nc1cccc(Br)c1` cannot be ordered by solubility kinetic: greater than 49.5 µg/mL for the first, greater than 41.9 µg/mL for the second.

`CCN1CCN(C2CC(=O)NC2=O)CC1` (centres undefined) and `CCN1C(=O)CC(N2CCC(C(=O)N3CCCCCC3)CC2)C1=O` (centres undefined) cannot be ordered by solubility kinetic: greater than 31.7 µg/mL for the first, greater than 50.3 µg/mL for the second.

`CCOC(=O)c1cn2ccc(C)cc2n1` and `CCOC(=O)C1CCN(CC(=O)c2c(C)n(C)c3ccc(OC)cc23)CC1` cannot be ordered by solubility kinetic: greater than 30.6 µg/mL for the first, greater than 55.9 µg/mL for the second.

Going from `COc1ccc(NC(=O)C(Cc2ccccc2)n2cccc2)c(OC)c1` (centres undefined) to `COc1ccc2c(c1)c(CC(=O)OCC(=O)O)c(C)n2C(=O)c1ccc(Cl)cc1`, the solubility kinetic rises from 12.9 µg/mL (≈ 36.8 µM) to greater than 62.4 µg/mL.

Compared with `CCOC(=O)CCCNC(=O)CCNC(=O)c1ccc(OCC(C)C)cc1`, `CCOC(=O)C1CCCN(Cc2cc(=O)oc3cc(C)c(C)cc23)C1` (centres undefined) is lower in solubility kinetic: greater than 56.8 µg/mL for the first, 23.1 µg/mL (≈ 67.3 µM) for the second.

For `CCC(OC(=O)c1nsc(Cl)c1Cl)C(=O)NC(C)(C)C` (centres undefined), the solubility kinetic was 46.6 µg/mL (≈ 137 µM).
